Entries after “also recorded” stand apart in the source; their conditions may differ.
Tests used:
[1] = test system: Karpas-422, SUDHL4, WSU-DLCL2 and HeLa cells; assay: laser micro-irradiation repair assay, H3K27me3 at break sites; assay type: cell-based, human; details: 15 min recovery, vs DMSO
Experimental: Following DMSO or ACY-957 treatment, cells were exposed to a 5Gy dose of ionizing radiation and allowed to recover for 30 minutes prior to chromatin extraction. Western blots were performed with anti-H3K27ac or anti-H3K27me3 with histone H3 serving as a loading control. (B-E): Karpas-422, SUDHL4, WSU-DLCL2 and HeLa cells were laser micro-irradiated and allowed to recover for 15 minutes before fixation and immunofluorescence staining with anti-γH2AX and anti-H3K27me3. Subsequently, the percentage of cells with H3K27me3 lines that co-localized with γH2AX were counted. Merge is the overlay of γH2AX and H3K27me3 pictures. (F-I): At least 100 cells with γH2AX lines were counted in each experiment. The quantitation shown was the average calculated from independent experiments+/−standard error. Quantitation from five, seven, five and six independent experiments performed in Karpas-422, SUDHL4, WSU-DLCL2 and HeLa cells, respectively, was used in the graph shown in this figure. […]
(A) Measurement of repair efficiency in SUDHL5 (EZH2^WT) and Karpas-422 (EZH2^GOF) cells using neutral comet assay that detects only double-strand breaks (DSBs). […] H3K27me3, γH2AX, Bmi-1, and serine2-phosphorylated RNA Polymerase II (engaged in transcriptional elongation) were monitored at laser break sites (arrows) after 15 minutes of recovery time. […]

[2] = test system: Karpas-422 and SUDHL4 cells; assay: Western blot of histone acetylation marks in whole cell lysates; details: vs DMSO
Experimental: Compounds were diluted in DMSO to 50 fold the final concentration and a ten point three fold dilution series was made. The compounds were diluted in assay buffer (50 mM HEPES, pH 7.4, 100 mM KCl, 0.001% Tween-20, 0.05% BSA, 20 μM tris(2-carboxyethyl)phosphine) to 6 fold their final concentration. The HDAC enzymes (purchased from BPS Biosciences) were diluted to 1.5 fold their final concentration in assay buffer. The tripeptide substrate (synthesized in house) and trypsin at 0.05 μM final concentration were diluted in assay buffer at 6 fold their final concentration. Five μl compounds and 20 μl of enzyme were added to wells of a black, opaque 384 well plate in duplicate. Enzyme and compound were incubated together at room temperature for 10 minutes. Five μl of substrate was added to each well, the plate was shaken for 60 seconds and placed into a Victor 2 microtiter plate reader. The development of fluorescence was monitored for 60 min and the linear rate of the reaction was calculated. The IC50 was determined using Graph Pad Prism by a four parameter curve fit.

Karpas-422 cells = assay: propidium-iodide / BrdU-PI cell cycle analysis; assay type: cell-based, human
Experimental: (B): Quantitation of the cell cycle data in (A), compiled from three independent analyses. The graphs plotted the average percentage of cells in each phase of the cell cycle. […] (C): FACS analysis following BrdU-PI staining of Karpas-422 and SUDHL4 cells was performed following a 48 h or 72 h treatment with ACY-957.
Cell cycle analysis of propidium-iodide stained cells was performed with fixed cells. […] (C): FACS analysis following BrdU-PI staining of Karpas-422 and SUDHL4 cells was performed following a treatment with 2 μM ACY-957, 50 nM doxorubicin or both for 48 h.
(B): Quantitation of the cell cycle analysis performed in (A). Data from three independent cell cycle analyses were compiled and average percentage cells with standard errors were shown in this panel.
Propidium-iodide Cell Cycle Analysis.
Since these DLBCL cells expressed a hyperactive form of EZH2, pharmacological inhibition of EZH2 activity was considered a therapeutic strategy. […] GSK126 was a S-adenosyl-methionine-competitive inhibitor of EZH2 methyltransferase activity, and DZNep was a S-adenosylhomocysteine hydrolase inhibitor that disrupted the components of the PRC2 complex, thereby causing reduced chromatin-associated EZH2 levels.
To test this possibility, cell cycle analysis following treatment of Karpas-422 with ACY-957, doxorubicin, or ACY-957 in combination with doxorubicin was performed.

[3] = test system: Karpas-422 and SUDHL4 cells; assay: Western blot of chromatin extracts for H3K27ac and H3K27me3; assay type: cell-based, human
Experimental: Western blot analysis was done with anti-H3K27ac, H3K27me3 or EZH2 and histone H3 served as a loading control.
Following DMSO or ACY-957 treatment, cells were exposed to a 5Gy dose of ionizing radiation and allowed to recover for 30 minutes prior to chromatin extraction. Western blots were performed with anti-H3K27ac or anti-H3K27me3 with histone H3 serving as a loading control. (B-E): Karpas-422, SUDHL4, WSU-DLCL2 and HeLa cells were laser micro-irradiated and allowed to recover for 15 minutes before fixation and immunofluorescence staining with anti-γH2AX and anti-H3K27me3. Subsequently, the percentage of cells with H3K27me3 lines that co-localized with γH2AX were counted. Merge is the overlay of γH2AX and H3K27me3 pictures. (F-I): At least 100 cells with γH2AX lines were counted in each experiment. The quantitation shown was the average calculated from independent experiments+/−standard error. Quantitation from five, seven, five and six independent experiments performed in Karpas-422, SUDHL4, WSU-DLCL2 and HeLa cells, respectively, was used in the graph shown in this figure. (J): Karpas-422 cells were micro-irradiated with a laser and allowed to recover for 15 minutes before fixation and immunofluorescence staining was performed with anti-γH2AX and anti-H3K27ac.
Protein Preparation and Western Blot Analysis.
The histone H3K27 residue was subjected to reversible acetylation and methylation. […] We also treated cells with the second EZH2 inhibitor, GSK126 alone, or combined with ACY-957 (ACY-957+GSK126). […] Cells were treated for 48 h prior to preparing chromatin extracts for Western analysis using antibodies recognizing H3K27ac or H3K27me3.
We first examined whether inhibiting HDAC1,2 activity induced any change in global H3K27ac or H3K27me3 on chromatin following DNA damage and during DNA repair. SUDHL4 or Karpas-422 cells with or without exposure to ionizing radiation (IR) were initially treated with DMSO or ACY-957 for 48 hr. Chromatin extracts were prepared from these cells following a 30 min recovery period (the repair phase) and changes in histone modifications were examined by Western blotting.

Nc1ccc(-c2cccs2)cc1NC(=O)c1ccc2nc(N3CCNCC3)ccc2c1 [ACY-957, N-(2-amino-5-(thiophen-2-yl)phenyl)-2-(piperazin-1-yl)quinoline-6-carboxamide]
H3K27me3 at laser-induced break sites [1]: reduced the extent of H3K27me3 present at laser-induced break sites | H3K27me3 at laser-induced break sites ([1]; listed as ACY957): abolished | H3K23ac levels ([2]; 2 μM, 24 hours): increased H3K23ac levels | H3K9,K14ac and H4K5ac levels ([2]; increasing amounts, 24 hr): concentration-dependent increase | cell death / sub-G1 population (Karpas-422 cells; 2 μM ACY-957, 50 nM doxorubicin or both, 48 h): sub-G1 population (i.e., dead cells) was observed | progression through the cell cycle (Karpas-422 cells; 24 h, 2 μM ACY-957, 0.5 μM DZNEP, 0.5 μM GSK126): did not affect their progression through the cell cycle | cell cycle / sub-G1 (dead cells) (Karpas-422 cells; 48 h, 2 μM ACY-957, 0.5 μM DZNEP, 0.5 μM GSK126): modest accumulation of sub-G1 population | S-phase population, BrdU-PI FACS (Karpas-422 cells; 48 h and 72 h, accompanied by increased cell death): decrease in S-phase population | cell cycle / sub-G1 (dead cells) (Karpas-422 cells; 72 h, 2 μM ACY-957, 0.5 μM DZNEP, 0.5 μM GSK126): larger increase in the number of sub-G1/dead cells; also recorded: large increase in the number of sub-G1 or dead Karpas-422 cells | global H3K27ac levels ([3]; 48 h, chromatin extracts): robust increase in global H3K27ac levels | global H3K27me3 levels ([3]; 48 h, chromatin extracts): remained unchanged | global H3K27me3 levels on chromatin ([3]; 48 hr, 30 min recovery from IR): concomitant decrease in global H3K27me3 levels on chromatin was not observed | global H3K27ac levels on chromatin ([3]; 48 hr, with or without exposure to IR): increased

Reference: patent publication US11154551B2, “HDAC1,2 inhibitors and methods of using the same” (UNIVERSITY OF UTAH RESEARCH FOUNDATION, priority 2014, dated 2021)
